According to patent US20040234592A1, “Dermatological formulations” (priority 2001, published 2004):

What was measured:
[1] = test system: atrophy induced by topical betamethasone; assay: Betamethasone-induced skin atrophy in mice, concomitant TriAc; format: in vivo; conditions: concomitant treatment with topical betamethasone
[2] = test system: genes important for skin structure and function; conditions: established models of human skin; cited from earlier work

Q: What does the source list for O=C(O)Cc1cc(I)c(Oc2ccc(O)c(I)c2)c(I)c1 [TriAc, [4-(4-Hydroxy-3-iodophenoxy)-3,5-diiodophenyl]acetic acid]?
A: atrophy (reduction of total collagen and of cross-linking between collagen bundles in the dermis) [1]: totally prevents the atrophy; expression of genes important for skin structure and function [2]: regulate expression of several genes
